Data reported in patent US8865750B2, “Small molecule inhibitors of RGS proteins” (The Regents of The University of Michigan, priority 2011, dated 2014).
Where two headings read alike, the source gives them in different places.

Assays:
[1] = tested on: RGS4; assay: FCPIA: Gαo binding to RGS4; details: for RGS4 Hill Slope: Table 3; for IC50: read-out: RGS4 IC50; for activity at RGS4: FCPIA
Text: (§1) FCPIA Dose Response and Reversibility Experiments:

[2] = target: RGS8 (Homo sapiens (Human), UniProt P57771); assay: FCPIA: Gαo binding to RGS8; details: for RGS8 Hill Slope: Table 3; for IC50: read-out: RGS8 IC50
Text: as §1

[3] = tested on: HEK293 cells; assay: Calcium mobilization induced by compound alone; assay type: cell-based; details: Homo sapiens, HEK293; read-out: Calcium transient (% 50014);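 also: percent of response to 10 µM reference CCG-50014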
Procedure: Calcium Mobilization Experiments:
A stable cell line was developed based upon the HEK-293 Flp-In TREx cell line (Invitrogen, Carlsbad, Calif.) that stably express the muscarinic M3 receptor and have human RGS4 expression under doxycycline control. Cells were maintained in DMEM supplemented with 10% fetal bovine serum and Penicillin (100 units/ml)-Streptomycin (100 μg/ml) under 5% CO2 at 37° C. For experiments, cells were split into 96-well black, clear bottom, poly-D-lysine coated microtiter plates (Nunc, Cat. #152037) at a density of 20,000 cells/well in DMEM containing 10% fetal bovine serum and Penicillin (100 units/ml), Streptomycin (100 μg/ml). RGS4 expression was induced by supplementing the medium with 1 μg/mL doxycycline for 24-48 hours before experimentation. Cells were loaded with Fluo-4 No Wash dye in buffer for 30 minutes at 37° C. Compounds and/or carbachol were added to the wells and the fluorescence intensity was measured using a FlexStation (Molecular Devices, Sunnyvale, Calif.) plate reader. Data analysis was performed by calculating the area under the curve or maximal fluorescence intensity from a 120 second kinetic measurement.

[4] = Table 3, duplex FCPIA, average of two experiments
[5] = Table 2, mean of two independent FCPIA experiments

Chain of RGS8 (P57771 other isoform, or with tags, fused parts or gaps): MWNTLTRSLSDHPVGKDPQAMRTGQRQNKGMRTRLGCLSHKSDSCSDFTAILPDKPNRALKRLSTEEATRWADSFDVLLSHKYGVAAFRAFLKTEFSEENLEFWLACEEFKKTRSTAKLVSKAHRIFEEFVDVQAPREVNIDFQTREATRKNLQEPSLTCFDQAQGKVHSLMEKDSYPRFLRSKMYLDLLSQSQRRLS

RGS4 Hill Slope [1] | IC50 [1, 4] [µM] | RGS8 Hill Slope [2] | IC50 ([2]; Table 6, FCPIA) [µM] | SMILES | Emax at 10 µM [3] [%] | also measured
−1.89 | 0.024 | −0.80 | 5.6 | O=c1sn(-c2ccccc2)c(=O)n1Cc1ccccc1 [CCG-203722, 2-phenyl-4-benzyl-1,2,4-thiadiazoline-3,5-dione] | 3.8 | 
−1.99 | 0.029 | −0.80 |  | O=c1sn(-c2ccc(Cl)cc2)c(=O)n1Cc1ccccc1 [CCG-203723, 2-(4-chlorophenyl)-4-benzyl-1,2,4-thiazolidine-3,5-dione] | 120 | IC50 [2, 4]: 5.2 µM
−2.06 | 0.089 | −1.62 | 13.2 | O=c1sn(-c2ccc(Cl)c(Cl)c2)c(=O)n1Cc1ccccc1 [CCG-203725] | 64.2 | 
−1.42 | 0.016 | −0.82 | 6.2 | O=c1sn(-c2ccccc2)c(=O)n1Cc1ccc(F)cc1 [CCG-203726, 2-phenyl-4-(4-fluorobenzyl)-1,2,4-thiadiazolidine-3,5-dione] | 20.9 | 
−1.15 | 0.036 | −1.78 |  | O=c1sn(-c2ccc(Cl)c(Cl)c2)c(=O)n1Cc1ccc(F)cc1 [CCG-203728, 2-(3,4-dichlorophenyl)-4-(4-fluorobenzyl)-1,2,4-thiadiazolidine-3,5-dione] | 128 | IC50 [2, 4]: 17.2 µM
−0.70 |  | −1.50 | 11.8 | Cc1ccc(-n2sc(=O)n(Cc3ccc(Cl)cc3)c2=O)cc1 [CCG-203731, 2-p-tolyl-4-(4-chlorobenzyl)-1,2,4-thiadiazolidine-3,5-dione] | -2.6 | IC50 ([1]; Table 6, FCPIA): 0.0054 µM
−0.84 |  | −0.66 |  | Cc1ccc(Cn2sc(=O)n(Cc3ccccc3)c2=O)cc1 [CCG-203734, 2-(4-methylbenzyl)-4-benzyl-1,2,4-thiadiazolidine-3,5-dione] | 591 | IC50 ([1]; Table 6, FCPIA): 0.0072 µM; IC50 [2, 4]: 20.4 µM
−1.33 | 0.011 | −1.27 | 11.4 | COc1ccc(-n2sc(=O)n(Cc3ccc(F)cc3)c2=O)cc1 [CCG-203735, 2-(4-methoxyphenyl)-4-(4-fluorobenzyl)-1,2,4-thiadiazolidine-3,5-dione] | 6.2 | 
−1.35 |  | −1.45 |  | Cc1ccc(Cn2c(=O)sn(-c3ccc(C)cc3)c2=O)cc1 [CCG-203736, 2-p-tolyl-4-(4-methylbenzyl)-1,2,4-thiadiazolidine-3,5-dione] | 4.9 | IC50 ([1]; Table 6, FCPIA): 0.0086 µM; IC50 [2, 4]: 11.6 µM
−1.19 | 0.013 | −0.22 |  | Cc1ccc(Cn2sc(=O)n(Cc3ccc(F)cc3)c2=O)cc1 [CCG-203742, 2-(4-methylbenzyl)-4-(4-fluorobenzyl)-1,2,4-thiadiazolidine-3,5-dione] | 108 | IC50 [2, 4]: 39.8 µM
−1.43 | 0.034 | −0.65 |  | Cc1ccc(-n2sc(=O)n(Cc3ccc(Cl)c(Cl)c3)c2=O)cc1 [CCG-203743, 2-p-tolyl-4-(3,4-dichlorobenzyl)-1,2,4-thiadiazolidine-3,5-dione] | 45.6 | IC50 [2, 4]: 15.7 µM
−1.45 | 0.024 | −1.00 |  | COc1ccc(-n2sc(=O)n(Cc3ccccc3)c2=O)cc1 [CCG-203746, 2-(4-methoxyphenyl)-4-benzyl-1,2,4-thiadiazolidine-3,5-dione] | 74.6 | IC50 [2, 4]: 12.3 µM
 |  |  | 312 | COc1ccc(Cn2c(=O)sn(-c3ccc(C)cc3)c2=O)cc1 [CCG-203754, 2-p-tolyl-4-(4-methoxybenzyl)-1,2,4-thiadiazolidine-3,5-dione] |  | 
 |  |  | 37 | CCn1sc(=O)n(C)c1=O [CCG-203758, 2-ethyl-4-methyl-1,2,4-thiadiazolidine-3,5-dione] |  | IC50 ([1]; Table 6, FCPIA): 0.0223 µM
 |  |  | 18.7 | CCn1sc(=O)n(Cc2ccc(F)cc2)c1=O [CCG-203766, 2-ethyl-4-(4-fluorobenzyl)-1,2,4-thiadiazolidine-3,5-dione] |  | IC50 ([1]; Table 6, FCPIA): 0.0223 µM
 |  |  | 9.9 | Cc1ccc(-n2sc(=O)n(Cc3cccc(C)c3)c2=O)cc1 [CCG-203782, 2-(4-methylphenyl)-4-(3-methylbenzyl)-1,2,4-thiadiazolidine-3,5-dione] |  | IC50 ([1]; Table 6, FCPIA): 0.0145 µM

Second part, the compound before the results:

SMILES | RGS4 Hill Slope [1] | IC50 [1, 4] [µM] | RGS8 Hill Slope [2] | IC50 ([2]; Table 6, FCPIA) [µM] | Emax at 10 µM [3] [%] | also measured
Cc1ccc(CN2C(=O)CN(c3ccc(C)cc3)C2=O)cc1 [CCG-203778] |  |  |  |  |  | IC50 [1, 5]: > 100 µM; IC50 [2, 5]: > 100 µM
Cc1ccc(C2=CC(=O)N(Cc3ccccc3)C2=O)cc1 [CCG-203779] |  |  |  |  |  | IC50 [1, 5]: 93 µM
CC(C)(C)c1ccc(-n2sc(=O)n(Cc3ccc(F)cc3)c2=O)cc1 [S1, 2-(4-t-butylphenyl)-4-(4-fluorobenzyl)-1,2,4-thiadiazolidine-3,5-dione] |  |  |  | 50.4 |  | 
O=c1sn(-c2ccccc2)c(=O)n1Cc1ccc(Cl)cc1 [S4, 2-phenyl-4-(4-chlorobenzyl)-1,2,4-thiadiazolidine-3,5-dione] |  |  |  | 7.5 |  | 
O=c1sn(-c2ccc(Cl)c(Cl)c2)c(=O)n1Cc1ccc(Cl)cc1 [S7, 2-(3,4-dichlorophenyl)-4-(4-chlorobenzyl)-1,2,4-thiadiazolidine-3,5-dione] |  |  |  | 43.2 |  | 
COc1ccc(-n2sc(=O)n(Cc3ccc(C)cc3)c2=O)cc1 [S11, 2-(4-methoxyphenyl)-4-(4-methylbenzyl)-1,2,4-thiadiazolidine-3,5-dione] |  |  |  | 6.6 |  | 
CC(C)(C)c1ccc(-n2sc(=O)n(Cc3cccc(Cl)c3)c2=O)cc1 [S15, 2-(4-t-butylphenyl)-4-(3-chlorobenzyl)-1,2,4-thiadiazolidine-3,5-dione] |  |  |  | 32.2 |  | 
O=c1sn(-c2cccc(C(F)(F)F)c2)c(=O)n1Cc1cccc(Cl)c1 [S18, 2-(3-trifluoromethylphenyl)-4-(3-chlorobenzyl)-1,2,4-thiadiazolidine-3,5-dione] |  |  |  | 16.2 |  | 
Cc1cccc(Cn2c(=O)sn(-c3ccc(C(C)(C)C)cc3)c2=O)c1 [S20, 2-(4-t-butylphenyl)-4-(3-methylbenzyl)-1,2,4-thiadiazolidine-3,5-dione] |  |  |  | 17.8 |  | 
Cc1cccc(Cn2c(=O)sn(-c3cccc(Cl)c3)c2=O)c1 [S22, 2-(3-chlorophenyl)-4-(3-methylbenzyl)-1,2,4-thiadiazolidine-3,5-dione] |  |  |  | 31 |  | 
Cc1cccc(Cn2c(=O)sn(-c3cccc(C(F)(F)F)c3)c2=O)c1 [S23, 2-(3-trifluoromethylphenyl)-4-(3-methylbenzyl)-1,2,4-thiadiazolidine-3,5-dione] |  |  | −1.03 | 15.9 | 65.2 | IC50 [2, 4]: 15.9 µM
Cc1ccc(Cn2c(=O)sn(-c3ccc(Cl)c(Cl)c3)c2=O)cc1 [S!2, 2-(3,4-dichlorophenyl)-4-(4-methylbenzyl)-1,2,4-thiadiazolidine-3,5-dione] |  |  |  | 175 |  | 
Cc1ccc(CN2C(=O)CN(c3ccc(C)cc3)C2=O)cc1 [compound 14, 3-(4-methylbenzyl)-1-p-tolylimidazolidine-2,4-dione] |  |  |  | > 100 |  | activity at RGS4 [1]: Neither 14 or 15 displayed activity at RGS4; IC50 ([1]; Table 6, FCPIA): > 100 µM
Cc1ccc(C2=CC(=O)N(Cc3ccccc3)C2=O)cc1 [compound 15, 1-benzyl-3-p-tolyl-1H-pyrrole-2,5-dione] |  |  |  |  |  | activity at RGS4 [1]: Neither 14 or 15 displayed activity at RGS4
